11 molecules from patent US6177438A, “Morphinan derivatives and pharmaceutical use thereof” (priority 1993, dated 2001) can be followed below.

Structures are written as SMILES. Counter-ions that a name gives are not always drawn. Like-named read-outs stand apart in the source and are kept apart here.

Assay [1] relates to extracted mouse vas deferens preparation. Nature of the assay: Opioid activity test using an extracted mouse vas deferens preparation (suppression of electrically induced contractions). Also noted: species or system male ddy mouse. The settings on record: electrical stimulus 0.1 Hz, 37° C. As for the experimental part:
(§1) A male ddy mouse was used in this test. The vas deferens extracted from the animal was suspended in a Magnus tube filled with Krebes-Henseleit solution (NaCl 118 mM; KCl 4.7 mM; CaCl2 2.5 mM; KH2 PO4 1.1 mM; NaHCO3 25 mM; Glucose 11 mM) warmed to 37° C. and ventilated with 5% carbon dioxide and 95% oxygen. Electrical stimulus was performed at 0.1 Hz for 5.0 ms by means of ring-shaped platinum electrodes located above and below. Tissue contractions were recorded on a polygraph using an isometric transducer.
(§2) After adequately washing with nutrient solution and the contraction reaction stabilized, the μ agonist, naloxone, the δ agonist, NTI, or the κ agonist, norBNI, was added after which the test compound was again cumulatively added after roughly 20 minutes. The Ke value was calculated using the following calculation formula from the difference in the efficacies of both agonists.

The target in another assay is T1, κ receptor (Mus musculus, UniProt P33534).
T1 construct: from tissue; host or cells: mouse (male ddy) vas deferens
The assay is described as follows: Opioid activity test using an extracted mouse vas deferens preparation, Ke with norBNI. Also noted: species or system male ddy mouse. The conditions noted are these: for receptor selectivity of agonist (κ): in words; for Ke, norBNI: κ, norBNI added. As for the experimental part:
as §1, §2
(§3) Ke=[Conc. of added agonist]/(IC50 ratio-1)
(§4) IC50 ratio=IC50 in the presence of agonist/IC50 in the absence of agonist

The nature of assay [2]: Diuretic action (urine output for 5 hours after physiological saline loading in rats). Format: in vivo, male Wistar rats. The conditions noted are these: for ED (200% urine output) / ED (500% urine output): Rattus norvegicus, sc, 5 hours after saline 20 ml/kg p.o.; for ED (200% urine output): dose giving urine output of 200 (non-dosed group = 100); for ED (500% urine output): dose giving urine output of 500 (non-dosed group = 100); for Diuretic action (in words): s.c., from ED200 values. As for the experimental part:
7-8 week old male Wistar rats were used in this test after prohibiting from drinking water for 1 hour before the start of testing. After discharging any urine accumulated in the bladder by gently stimulating the lower abdomens of the animals, the drug was administered subcutaneously. After 30 minutes, the animals were then forcibly given 20 ml/kg of physiological saline orally. The animals were placed in metabolic cages immediately after administration of the drug (2 animals/cage) and urine output for 5 hours after loading with physiological saline was measured. Drug efficacy was expressed in the form of those doses resulting in urine outputs of 200 and 500, respectively, when the urine output of a non-dosed group was taken to be 100. Those doses were expressed as the ED200 and ED500 values, respectively.

The next assay deals with T2, μ receptor (Mus musculus, UniProt P42866).
T2 construct: naloxone as mu antagonist (printed 'agonist')
The assay is described as follows: Opioid activity test using an extracted mouse vas deferens preparation, Ke with naloxone. The conditions noted are these: naloxone added. Also noted: species or system male ddy mouse. As to the method: as §1, §2, §3, §4

Assay [3] relates to acetic acid-induced writhing in ddy mice. The assay is described as follows: animal or person. The assay is classed as in vivo, 5 week old ddy mice. The conditions noted are these: for ED50: s.c. 15 minutes before acetic acid. As for the experimental part: 5 week old ddy mice were used in this test. After intraperitoneal administration of 0.1 ml of 0.6% aqueous acetic acid per 10 g of body weight, the number of writhing reactions that occurred in 10 minutes starting 10 minutes after administration was evaluated for the indicator. The test drug was administered subcutaneously into the backs of the animals 15 minutes before administration of acetic acid.

Another assay has as its target T3, δ receptor (Mus musculus, UniProt P32300).
T3 construct: The vas deferens extracted from the animal was suspended in a Magnus tube; from tissue; host or cells: mouse (male ddy) vas deferens
On the set-up: species or system male ddy mouse.

[4] abbreviates: Mus musculus, sc, read-out: ED50.
The mark [5] stands for this setting: mouse vas deferens, δ, NTI added.

T2 sequence (P42866 whole entry): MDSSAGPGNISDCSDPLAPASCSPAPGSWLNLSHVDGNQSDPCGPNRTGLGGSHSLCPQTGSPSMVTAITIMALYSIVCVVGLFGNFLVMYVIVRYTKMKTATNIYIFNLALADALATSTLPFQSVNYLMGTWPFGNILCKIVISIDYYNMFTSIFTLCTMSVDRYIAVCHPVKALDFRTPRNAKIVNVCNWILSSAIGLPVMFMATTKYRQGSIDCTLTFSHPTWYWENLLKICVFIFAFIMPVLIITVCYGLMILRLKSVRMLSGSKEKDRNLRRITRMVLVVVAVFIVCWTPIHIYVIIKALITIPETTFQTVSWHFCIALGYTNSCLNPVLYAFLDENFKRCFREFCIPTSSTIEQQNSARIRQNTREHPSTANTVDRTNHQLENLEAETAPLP
T1 sequence (P33534 whole entry): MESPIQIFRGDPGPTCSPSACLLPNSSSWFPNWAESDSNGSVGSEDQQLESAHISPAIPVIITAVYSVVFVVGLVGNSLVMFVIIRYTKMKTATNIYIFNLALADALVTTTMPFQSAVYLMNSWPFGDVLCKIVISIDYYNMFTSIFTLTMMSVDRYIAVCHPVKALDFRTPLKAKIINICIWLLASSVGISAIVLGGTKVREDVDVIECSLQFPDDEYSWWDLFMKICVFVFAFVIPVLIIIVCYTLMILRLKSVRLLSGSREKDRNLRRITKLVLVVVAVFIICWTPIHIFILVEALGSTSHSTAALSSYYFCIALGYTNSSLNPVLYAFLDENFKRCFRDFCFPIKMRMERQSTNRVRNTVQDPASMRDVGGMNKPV
T3 sequence (P32300 whole entry): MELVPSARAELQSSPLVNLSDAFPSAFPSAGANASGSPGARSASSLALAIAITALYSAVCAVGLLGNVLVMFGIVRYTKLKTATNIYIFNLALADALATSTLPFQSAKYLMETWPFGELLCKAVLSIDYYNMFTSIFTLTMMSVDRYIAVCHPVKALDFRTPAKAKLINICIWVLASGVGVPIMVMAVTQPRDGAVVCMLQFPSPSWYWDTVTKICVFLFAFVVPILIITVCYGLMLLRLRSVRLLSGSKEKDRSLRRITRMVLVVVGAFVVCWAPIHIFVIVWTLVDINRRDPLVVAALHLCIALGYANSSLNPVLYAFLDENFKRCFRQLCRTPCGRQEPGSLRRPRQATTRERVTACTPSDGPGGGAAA

The IC50 is the concentration at which inhibition is half-maximal. Lower therefore signals greater potency. Usually ED50 stands for the midpoint of the dose-response relation. In turn, `COc1cccc(C#CC(=O)N(C)[C@@H]2CC[C@@]3(O)[C@H]4Cc5ccc(O)c6c5[C@@]3(CCN4CC3CC3)[C@H]2O6)c1.O=C(O)C(O)C(O)C(=O)O` [Compound 173, 17-cyclopropylmethyl-3,14β-dihydroxy-4,5α-epoxy-6β-[N-methyl-3-(3-methoxyphenyl)propiolamido]morphinan tartrate] had a half-inhibitory concentration (IC50) in assay [1] of 0.02 nM. In addition, on κ receptor, the “receptor selectivity of agonist (κ)” value is recorded as “selective agonists for κ receptors” and the “Ke, norBNI” value is on record as 0.11 nM. In assay [2], this molecule had an ED (200% urine output) of 27.5 µg/kg and an ED (500% urine output) of 1550 µg/kg. Besides, the “Ke, Naloxone” value at μ receptor is recorded as 19.6 nM. The ED50 in assay [3] (setting [4]) came out at 11 µg/kg. The “Ke, NTI” value on δ receptor (setting [5]) is reported as 21.3 nM.

`CN(C(=O)OCc1ccc([N+](=O)[O-])cc1)[C@H]1CC[C@@]2(O)[C@H]3Cc4ccc(O)c5c4[C@@]2(CCN3CC2CC2)[C@H]1O5` [Compound 43, 17-cyclopropylmethyl-3,14β-dihydroxy-4,5α-epoxy-6α-(N-methyl-4-nitrobenzyloxycarbamido)morphinan.cndot.hydrochloride] returned a half-maximal inhibitory concentration (IC50) in assay [1] of 0.65 nM. Besides, on κ receptor, the “receptor selectivity of agonist (κ)” value is given as “selective agonists for κ receptors” and the “Ke, norBNI” value came out at 5.31 nM. Further, in assay [2], the ED (200% urine output) worked out at 0.54 µg/kg, the ED (500% urine output) worked out at 4.4 µg/kg and the “Diuretic action (in words)” value was “extremely strong diuretic action”. Besides, the “Ke, Naloxone” value at μ receptor is 409 nM. Moreover, the ED50 in assay [3] (setting [4]) stood at 5.5 µg/kg. Further, the “Ke, NTI” value on δ receptor (setting [5]) came out at 22.5 nM.

Turning to `CN(C(=O)/C=C/c1cccc(Br)c1)[C@@H]1CC[C@@]2(O)[C@H]3Cc4ccc(O)c5c4[C@@]2(CCN3CC2CC2)[C@H]1O5` [Compound 151, 17-cyclopropylmethyl-3,14β-dihydroxy-4,5α-epoxy-6β-(N-methyl-3-bromocinnamamido)morphinan hydrobromide], on κ receptor, the “receptor selectivity of agonist (κ)” value was “selective agonists for κ receptors” and the “Ke, norBNI” value is on record as 0.028 nM. In assay [2], this molecule came in with an ED (200% urine output) of 4.45 µg/kg and an ED (500% urine output) of 1560 µg/kg. For the same molecule, the “Ke, Naloxone” value at μ receptor worked out at 0.94 nM. In addition, the ED50 in assay [3] (setting [4]) was determined as 4.1 µg/kg. Also, at δ receptor, the “Ke, NTI” value turned out to be 1.65 nM.

In assay [1], `C=CCN1CC[C@]23c4c5ccc(O)c4O[C@H]2[C@@H](N(C)C(=O)Cc2ccc(Cl)c(Cl)c2)CC[C@@]3(O)[C@H]1C5` [Compound 122, 17-allyl-3,14β-dihydroxy-4,5α-epoxy-6α-(N-methyl-3,4-dichlorophenylacetamido)morphinan.cndot.hydrochloride] displayed an IC50 of 3.01 nM. At κ receptor, the “receptor selectivity of agonist (κ)” value is listed as “selective agonists for κ receptors” and the “Ke, norBNI” value is on record as 0.358 nM. The “Ke, Naloxone” value on μ receptor is on record as 59.5 nM. Moreover, the 50% effective dose (ED50) in assay [3] (setting [4]) was determined as 340 µg/kg. Further, the “Ke, NTI” value at δ receptor (setting [5]) is 42.7 nM.

For `CN(C(=O)C#Cc1ccc(C(F)(F)F)cc1)[C@H]1CC[C@@]2(O)[C@H]3Cc4ccc(O)c5c4[C@@]2(CCN3CC2CC2)[C@H]1O5` [Compound 126, 17-Cyclopropylmethyl-3,14β-dihydroxy-4,5α-epoxy-6α-[N-methyl-3-(4-trifluoromethylphenyl)propiolamido]morphinan.cndot.0.5 tartrate], the 50% inhibitory concentration (IC50) in assay [1] is 0.969 nM. In addition, the “Ke, norBNI” value on κ receptor amounted to 1.20 nM. Also, the “Ke, Naloxone” value at μ receptor is 40.2 nM. The “receptor selectivity of agonist (δ)” value on δ receptor (mouse vas deferens, in words) is given as “selective agonists for δ receptors”. In addition, the “Ke, NTI” value on δ receptor (setting [5]) worked out at 0.0065 nM.

In the case of `CN(C(=O)/C=C/c1ccc(C(F)(F)F)cc1)[C@@H]1CC[C@@]2(O)[C@H]3Cc4ccc(O)c5c4[C@@]2(CCN3CC2CC2)[C@H]1O5` [Compound 73, 17-cyclopropylmethyl-3,14β-dihydroxy-4,5α-epoxy-6β-(N-methyl-4-trifluoromethylcinnamamido)morphinan.cndot.tartrate], the IC50 in assay [1] is 0.072 nM. At κ receptor, the “receptor selectivity of agonist (κ)” value is recorded as “selective agonists for κ receptors” and the “Ke, norBNI” value was determined as 0.272 nM. In addition, the “Ke, Naloxone” value on μ receptor is given as 524 nM. Also, in assay [3] (setting [4]), the median effective dose (ED50) turned out to be 23 µg/kg. Also, the “Ke, NTI” value on δ receptor (setting [5]) worked out at 78 nM.

For the molecule `CC(C)CN(C(=O)/C=C/c1cccc(C(F)(F)F)c1)[C@@H]1CC[C@@]2(O)[C@H]3Cc4ccc(O)c5c4[C@@]2(CCN3CC2CC2)[C@H]1O5` [Compound 166, 17-cyclopropylmethyl-3,14β-dihydroxy-4,5α-epoxy-6β-(N-isobutyl-3-trifluoromethylcinnamamido)morphinan 0.5 tartrate], the IC50 in assay [1] came to 0.028 nM. Also, the “Ke, norBNI” value on κ receptor is 4.78 nM. Besides, the “Ke, Naloxone” value on μ receptor is 36.9 nM. The “Ke, NTI” value at δ receptor (setting [5]) is reported as 20.5 nM.

Consider `CN(C(=O)/C=C/c1cccc(Cl)c1)[C@@H]1CC[C@@]2(O)[C@H]3Cc4ccc(O)c5c4[C@@]2(CCN3CC2CC2)[C@H]1O5` [Compound 154, 17-cyclopropylmethyl-3,14β-dihydroxy-4,5α-epoxy-6β-(N-methyl-3-chlorocinnamamido)morphinan hydrochloride], for which, at κ receptor, the “receptor selectivity of agonist (κ)” value is reported as “selective agonists for κ receptors” and the “Ke, norBNI” value was 0.133 nM. Also, in assay [2], the ED (200% urine output) worked out at 2.14 µg/kg and the ED (500% urine output) was 270 µg/kg. The “Ke, Naloxone” value at μ receptor amounted to 43.1 nM. Further, the median effective dose (ED50) in assay [3] (setting [4]) was 1 µg/kg. Also, the analgesic activity result in assay [3] (s.c., in words) is given as “particularly strong analgesic activity”. The “Ke, NTI” value at δ receptor is listed as 31.5 nM.

Take `CC(=O)Oc1ccc2c3c1O[C@H]1[C@H](N(C)C(=O)/C=C/c4ccccc4)CC[C@@]4(O)[C@@H](C2)N(CC2CC2)CC[C@]314` [Compound 140, 17-Cyclopropylmethyl-3-acetoxy-14β-hydroxy-4,5α-epoxy-6β-(N-methylcinnamamido)morphinan.cndot.tartrate]: the IC50 in assay [1] stood at 0.413 nM. Besides, at κ receptor, the “receptor selectivity of agonist (κ)” value is “selective agonists for κ receptors” and the “Ke, norBNI” value was 1.06 nM. The “Ke, Naloxone” value on μ receptor turned out to be 320 nM. For the same molecule, the ED50 in assay [3] was 3.4 µg/kg. For the same molecule, the “Ke, NTI” value on δ receptor (setting [5]) is given as 261 nM.

In the case of `CN(C(=O)/C=C/c1ccc(Cl)cc1)[C@@H]1CC[C@@]2(O)[C@H]3Cc4ccc(O)c5c4[C@@]2(CCN3CC2CC2)[C@H]1O5` [Compound 152, 17-cyclopropylmethyl-3,14β-dihydroxy-4,5α-epoxy-6β-(N-methyl-4-chlorocinnamamido)morphinan hydrochloride], at κ receptor, the “receptor selectivity of agonist (κ)” value was “selective agonists for κ receptors” and the “Ke, norBNI” value was 0.039 nM. Besides, in assay [2], the ED (200% urine output) came to 0.71 µg/kg, the ED (500% urine output) worked out at 9.53 µg/kg and the “Diuretic action (in words)” value is recorded as “extremely strong diuretic action”. In addition, the “Ke, Naloxone” value at μ receptor was determined as 17.5 nM. The molecule also gave a median effective dose (ED50) in assay [3] of 3.8 µg/kg. The “Ke, NTI” value at δ receptor is 35.1 nM.

For `Cc1cccc(C#CC(=O)N(C)[C@@H]2CC[C@@]3(O)[C@H]4Cc5ccc(O)c6c5[C@@]3(CCN4CC3CC3)[C@H]2O6)c1.Cl` [Compound 172, 17-cyclopropylmethyl-3,14β-dihydroxy-4,5α-epoxy-6β-[N-methyl-3-(3-methylphenyl)propiolamido]morphinan hydrochloride], on κ receptor, the “receptor selectivity of agonist (κ)” value is recorded as “selective agonists for κ receptors” and the “Ke, norBNI” value stood at 0.163 nM. In assay [2], this molecule yielded an ED (200% urine output) of 3.23 µg/kg and an ED (500% urine output) of 3030 µg/kg. Also, the “Ke, Naloxone” value at μ receptor is 16.16 nM. Also, in assay [3] (setting [4]), the ED50 came out at 7.9 µg/kg. Further, the “Ke, NTI” value on δ receptor (setting [5]) worked out at 17.57 nM.
